The subject of the first assay is isolated rat soleus muscles. Briefly: Measurement of force in an in vitro model: recovery of contractile force of isolated rat soleus nerve-muscle preparation after tubocurarine. The conditions noted are these: 40 min, 10 μM of test compound, tubocurarine 115 nM, after 40 mins of compound exposure, read-out: Point increase (%): percentage increase of initial force that was restored. The method, then:
The current disclosure relates to compounds that inhibit CIC-1 ion channels and increase muscle excitability and thereby improve muscle function in clinical conditions where muscle activation is failing. Such conditions result in loss of contractile function of skeletal muscle, weakness and excessive fatigue. In this series of experiments the compounds were tested for their ability to restore contractile function of isolated rat muscle when the neuromuscular transmission had been compromised akin to neuromuscular disorders.
Experimentally, soleus muscles from 4-5 wk old rats were isolated with the motor nerve remaining attached. The nerve-muscle preparations were mounted in experimental setups that enabled electrical stimulation of the motor nerve. Stimulation of the motor nerve led to activation of the muscle fibres and ensuing force production that was recorded. The nerve-muscle preparations were also in these experiments incubated in the standard Krebs Ringer (see example 15) and the solution was heated to 30° C. and continuously equilibrated with a mixture of 95% O2 and 5% CO2, pH ~7.4.
After mounting the nerve-muscle preparation in the experimental setup, the contractile function of the muscle was initially assessed under the control conditions. Sub-maximal concentration of tubocurarine (115 nM), an acetylcholine receptor antagonist, was then added to the experimental bath to impose partial inhibition of the ability of the motor nerve to activate the muscle fibres. The experimental condition mimics the failing neuromuscular transmission in a range of neuromuscular disorders. After addition of tubocurarine the contractile force declined over the next 90 minutes to 10-50% of the control force. The test compound was then added to obtain the required compound concentration in the bath and the contractile force recovered was measured. To quantify the ability of the compound to restore force the percentage of the initial force that was restored was determined after 40 mins of compound exposure and the point increase is reported in Tables 3 to 7.
`Cc1ccccc1CN1CCOc2cc(Cl)c(F)c(C(=O)O)c21` [Compound A-62, 7-Chloro-6-fluoro-4-[(o-tolyl)methyl]-3,4-dihydro-2H-1,4-benzoxazine-5-carboxylic acid]: the activation at 10 µM is 28%.

Still in this assay, the particulars now being: 40 min, 25 μM of test compound, tubocurarine 115 nM, after 40 mins of compound exposure, read-out: Point increase (%): percentage increase of initial force that was restored.
For the compound `COc1c(Cl)cc2c(c1C(=O)O)OCCN2` [Compound A-14, 6-Chloro-7-methoxy-3,4-dihydro-2H-1,4-benzoxazine-8-carboxylic acid], the activation at 25 µM was 28%. `COc1c(Cl)cc2c(c1C(=O)O)OCCN2CCCc1ccco1` [Compound A-40, 6-Chloro-4-[3-(furan-2-yl)propyl]-7-methoxy-3,4-dihydro-2H-1,4-benzoxazine-8-carboxylic acid]: the activation at 25 µM is 14%. `COc1c(Cl)cc2c(c1C(=O)O)OCCN2Cc1cccs1` [Compound A-42, 6-chloro-7-methoxy-4-[(thiophen-2-yl)methyl]-3,4-dihydro-2H-1,4-benzoxazine-8-carboxylic acid]: the activation at 25 µM worked out at 30%. As to `O=C(O)c1c(F)c(Cl)cc2c1OCCN2CC1CCC1` [Compound A-46, 6-Chloro-4-(cyclobutylmethyl)-7-fluoro-3,4-dihydro-2H-1,4-benzoxazine-8-carboxylic acid], the activation at 25 µM was determined as 8%. Turning to `COc1c(Cl)cc2c(c1C(=O)O)OCCN2CCc1cc(F)cc(F)c1` [Compound A-53, 6-Chloro-4-[2-(3,5-difluorophenyl)ethyl]-7-methoxy-3,4-dihydro-2H-1,4-benzoxazine-8-carboxylic acid], the activation at 25 µM was found to be 30%.

The same assay, now with this note: 40 min, 35 μM of test compound, tubocurarine 115 nM, after 40 mins of compound exposure, read-out: Point increase (%): percentage increase of initial force that was restored.
Regarding `CCCN1CCOc2cc(Cl)c(F)c(C(=O)O)c21` [Compound A-56, 7-Chloro-6-fluoro-4-propyl-3,4-dihydro-2H-1,4-benzoxazine-5-carboxylic acid], the activation at 35 µM is 48%.

Still in this assay, the particulars now being: 40 min, 50 μM of test compound, tubocurarine 115 nM, after 40 mins of compound exposure, read-out: Point increase (%): percentage increase of initial force that was restored.
Regarding `O=C(O)c1c(F)c(Cl)cc2c1NCCO2` [Compound A-11, 7-Chloro-6-fluoro-3,4-dihydro-2H-1,4-benzoxazine-5-carboxylic acid], the activation at 50 µM is 23%.

Take `CCOc1c(Cl)cc2c(c1C(=O)O)OCCCN2C` [Compound A-16, 7-chloro-8-ethoxy-5-methyl-2,3,4,5-tetrahydro-1,5-benzoxazepine-9-carboxylic acid]: the activation at 50 µM worked out at 49%. As for `O=C(O)c1c(F)c(Cl)cc2c1OCCN2CC1CC1` [Compound A-20, 6-Chloro-4-(cyclopropylmethyl)-7-fluoro-3,4-dihydro-2H-1,4-benzoxazine-8-carboxylic acid], the activation at 50 µM amounted to 22%.

Consider `COc1c(Cl)cc2c(c1C(=O)O)OCCN2C(C)C` [Compound A-32, 6-Chloro-7-methoxy-4-(propan-2-yl)-3,4-dihydro-2H-1,4-benzoxazine-8-carboxylic acid], for which the activation at 50 µM was found to be 39%. On the same count and under the same terms, to `COc1c(Cl)cc2c(c1C(=O)O)OCCN2CCc1ccccc1` [Compound A-33, 6-Chloro-7-methoxy-4-(2-phenylethyl)-3,4-dihydro-2H-1,4-benzoxazine-8-carboxylic acid] belongs 25%; to `COCC1CN(C)c2cc(Cl)c(OC)c(C(=O)O)c2O1` (stereo not drawn) [Compound A-35, 6-Chloro-7-methoxy-2-(methoxymethyl)-4-methyl-3,4-dihydro-2H-1,4-benzoxazine-8-carboxylic acid], 21%; to `COc1c(Cl)cc2c(c1C(=O)O)OC(C)(C)CN2C` [Compound A-37, 6-Chloro-7-methoxy-2,2,4-trimethyl-3,4-dihydro-2H-1,4-benzoxazine-8-carboxylic acid], 51%. On the same count and under the same terms, next, `COCCN1CCOc2c1cc(Cl)c(F)c2C(=O)O` [Compound A-38, 6-Chloro-7-fluoro-4-(2-methoxyethyl)-3,4-dihydro-2H-1,4-benzoxazine-8-carboxylic acid]: 17%. Same read-out and setting: to `COc1c(Cl)cc2c(c1C(=O)O)OC1(CCC1)CN2C` [Compound A-39, 6-Chloro-7-methoxy-4-methyl-3,4-dihydrospiro[1,4-benzoxazine-2,1′-cyclobutane]-8-carboxylic acid] belongs 35%.

The assay is the same for the next values; noted with them: 40 min, 100 μM of test compound, tubocurarine 115 nM, after 40 mins of compound exposure, read-out: Point increase (%): percentage increase of initial force that was restored.
For the compound `O=C(O)c1c(F)c(Cl)cc2c1OCCN2Cc1ccccc1` [Compound A-22, 4-Benzyl-6-chloro-7-fluoro-3,4-dihydro-2H-1,4-benzoxazine-8-carboxylic acid], the activation at 100 µM was 15%.

With `COc1c(Cl)cc2c(c1C(=O)O)OCCN2Cc1nccs1` [Compound A-43, 6-Chloro-7-methoxy-4-[(1,3-thiazol-2-yl)methyl]-3,4-dihydro-2H-1,4-benzoxazine-8-carboxylic acid], the activation at 100 µM was determined as 14%.

`COc1c(Cl)cc2c(c1C(=O)O)OCCN2CCCc1nccs1` [Compound A-47, 6-Chloro-7-methoxy-4-[3-(1,3-thiazol-2-yl)propyl]-3,4-dihydro-2H-1,4-benzoxazine-8-carboxylic acid]: the activation at 100 µM came out at 14%.

Still in this assay, the particulars now being: 40 min, read-out: Point increase (%): percentage increase of initial force that was restored.
`COc1c(Cl)cc2c(c1C(=O)O)N(C)CCO2` [Compound A-10, 7-Chloro-6-methoxy-4-methyl-3,4-dihydro-2H-1,4-benzoxazine-5-carboxylic acid]: the activation at 10 µM stood at 36%.

Regarding `COc1c(Cl)cc2c(c1C(=O)O)OCCCN2C` [Compound A-12, 7-Chloro-8-methoxy-5-methyl-2,3,4,5-tetrahydro-1,5-benzoxazepine-9-carboxylic acid], the activation at 50 µM stood at 54%. As to `O=C(O)c1c(F)c(Cl)cc2c1OCCCN2` [Compound A-15, 7-Chloro-8-fluoro-2,3,4,5-tetrahydro-1,5-benzoxazepine-9-carboxylic acid], the activation at 50 µM came out at 51%. For the compound `CC(C)Oc1c(Cl)cc2c(c1C(=O)O)OCCN2C` [Compound A-24, 6-Chloro-4-methyl-7-(propan-2-yloxy)-3,4-dihydro-2H-1,4-benzoxazine-8-carboxylic acid], the activation at 50 µM stood at 34%.

As to `CSc1c(Cl)cc2c(c1C(=O)O)OCCN2C` [Compound A-26, 6-Chloro-4-methyl-7-(methylsulfanyl)-3,4-dihydro-2H-1,4-benzoxazine-8-carboxylic acid], the activation at 25 µM worked out at 28%. With `COc1c(C)cc2c(c1C(=O)O)OCCN2C` [Compound A-31, 7-Methoxy-4,6-dimethyl-3,4-dihydro-2H-1,4-benzoxazine-8-carboxylic acid], the activation at 50 µM was 32%.

As for `O=C(O)c1c(Cl)c(Cl)cc2c1OCCN2Cc1ccccc1` [Compound A-41, 4-Benzyl-6,7-dichloro-3,4-dihydro-2H-1,4-benzoxazine-8-carboxylic acid], the activation at 100 µM was determined as 28%.

`COc1c(Cl)c(F)c2c(c1C(=O)O)OCCN2C` [Compound A-44, 6-Chloro-5-fluoro-7-methoxy-4-methyl-3,4-dihydro-2H-1,4-benzoxazine-8-carboxylic acid]: the activation at 25 µM was 35%.

Regarding `O=C(O)c1c(F)c(Cl)cc2c1N(Cc1ccccc1)CCO2` [Compound A-45, 4-Benzyl-7-chloro-6-fluoro-3,4-dihydro-2H-1,4-benzoxazine-5-carboxylic acid], the activation at 10 µM was 43%. As for `Cc1c(Cl)cc2c(c1C(=O)O)OCCN2C` [Compound A-48, 6-chloro-4,7-dimethyl-3,4-dihydro-2H-1,4-benzoxazine-8-carboxylic acid], the activation at 25 µM amounted to 23%. Regarding `COc1c(Cl)cc2c(c1C(=O)O)OCCN2Cc1ccccc1` [Compound A-52, 4-Benzyl-6-chloro-7-methoxy-3,4-dihydro-2H-1,4-benzoxazine-8-carboxylic acid], the activation at 25 µM was determined as 14%.

(Values after patent publication US20260199369A1, “COMPOUNDS FOR THE TREATMENT OF NEUROMUSCULAR DISORDERS” (NMD PHARMA A/S, priority 2022, published 2026).)
